Measurements as given in patent US11226337B2, “Chemoproteomic profiling of protein electrophilic and oxidative post-translational modifications” (Zenagem, LLC, priority 2017, dated 2022).

Assays:
Assay in all cases: SILAC RP-ABPP
Type in all cases: cell-based
[1] = target: T1, RARS2 Probable arginine tRNA ligase (Q5T160) (Homo sapiens, UniProt Q5T160); conditions: SILAC H/L
T1 construct: shared by both the endogenous and recombinant forms of these proteins; endogenous in cells; host or cells: HEK293T and MDA-MB-231
T1 sequence (Q5T160 17-578): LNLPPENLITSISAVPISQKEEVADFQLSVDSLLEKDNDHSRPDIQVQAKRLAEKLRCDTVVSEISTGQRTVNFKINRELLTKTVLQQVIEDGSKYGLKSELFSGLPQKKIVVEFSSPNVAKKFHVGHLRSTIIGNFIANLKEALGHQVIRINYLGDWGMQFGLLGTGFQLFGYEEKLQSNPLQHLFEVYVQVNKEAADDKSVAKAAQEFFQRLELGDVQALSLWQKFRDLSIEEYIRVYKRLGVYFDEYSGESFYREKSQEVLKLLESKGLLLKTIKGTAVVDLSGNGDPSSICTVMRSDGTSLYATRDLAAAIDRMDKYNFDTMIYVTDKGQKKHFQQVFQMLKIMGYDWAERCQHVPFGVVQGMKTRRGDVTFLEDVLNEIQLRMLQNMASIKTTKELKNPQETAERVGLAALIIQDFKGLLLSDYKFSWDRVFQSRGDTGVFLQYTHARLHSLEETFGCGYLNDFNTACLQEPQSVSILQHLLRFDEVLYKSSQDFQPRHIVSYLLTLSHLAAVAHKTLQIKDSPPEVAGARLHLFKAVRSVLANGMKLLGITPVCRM

[2] = target: T2, SERPINE1 Plasminogen activator inhibitor 1 (P05121) (Homo sapiens, UniProt P05121); conditions: SILAC H/L, MDA-MB-231
T2 construct: In Situ Labelling of Cells with Hydrazine Probes for MS Experiments; endogenous in cells

[3] = target: T3, KEAP1 Kelchlike ECHassociated protein 1 (Q14145) (Homo sapiens, UniProt Q14145); conditions: SILAC H/L
T3 construct: shared by both the endogenous and recombinant forms of these proteins; endogenous in cells; host or cells: HEK293T and MDA-MB-231

[4] = target: T4, P4HA1 Prolyl 4hydroxylase subunit alpha1 (P13674) (Homo sapiens, UniProt P13674); conditions: SILAC H/L, MDA-MB-231
T4 construct: In Situ Labelling of Cells with Hydrazine Probes for MS Experiments; endogenous in cells

[5] = probe 1 3 mM 0.5 h vs probe 3, HEK293T
[6] = probe 1 vs probe 1+10x probe 3, HEK293T

T4 sequence (P13674 18-534): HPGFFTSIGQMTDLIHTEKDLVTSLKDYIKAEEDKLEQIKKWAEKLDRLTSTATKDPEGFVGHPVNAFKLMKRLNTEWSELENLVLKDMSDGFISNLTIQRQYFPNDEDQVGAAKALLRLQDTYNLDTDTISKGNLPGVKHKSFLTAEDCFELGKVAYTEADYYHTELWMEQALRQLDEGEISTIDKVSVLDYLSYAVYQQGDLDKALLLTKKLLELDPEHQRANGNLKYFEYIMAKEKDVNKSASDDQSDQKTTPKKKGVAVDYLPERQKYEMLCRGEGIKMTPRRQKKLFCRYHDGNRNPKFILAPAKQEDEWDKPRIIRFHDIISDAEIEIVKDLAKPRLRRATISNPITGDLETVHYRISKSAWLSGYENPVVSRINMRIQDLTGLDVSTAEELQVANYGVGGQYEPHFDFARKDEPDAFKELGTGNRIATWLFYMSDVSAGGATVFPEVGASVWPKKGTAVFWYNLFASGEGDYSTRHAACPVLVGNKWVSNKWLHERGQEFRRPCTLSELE
T4 sequence (P07237 18-508 partner): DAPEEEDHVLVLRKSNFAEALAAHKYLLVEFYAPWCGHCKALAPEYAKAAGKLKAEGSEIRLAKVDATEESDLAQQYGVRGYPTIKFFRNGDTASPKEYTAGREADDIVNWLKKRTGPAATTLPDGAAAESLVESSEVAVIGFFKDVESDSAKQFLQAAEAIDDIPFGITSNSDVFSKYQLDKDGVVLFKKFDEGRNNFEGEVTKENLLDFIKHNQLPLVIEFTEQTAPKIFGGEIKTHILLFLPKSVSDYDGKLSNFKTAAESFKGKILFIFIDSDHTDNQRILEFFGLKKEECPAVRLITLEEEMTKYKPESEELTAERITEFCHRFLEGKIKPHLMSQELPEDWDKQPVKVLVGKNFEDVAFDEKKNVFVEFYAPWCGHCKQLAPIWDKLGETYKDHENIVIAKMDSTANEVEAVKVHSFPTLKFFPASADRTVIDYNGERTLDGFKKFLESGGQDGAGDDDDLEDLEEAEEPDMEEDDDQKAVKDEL
T3 sequence (Q14145 whole entry): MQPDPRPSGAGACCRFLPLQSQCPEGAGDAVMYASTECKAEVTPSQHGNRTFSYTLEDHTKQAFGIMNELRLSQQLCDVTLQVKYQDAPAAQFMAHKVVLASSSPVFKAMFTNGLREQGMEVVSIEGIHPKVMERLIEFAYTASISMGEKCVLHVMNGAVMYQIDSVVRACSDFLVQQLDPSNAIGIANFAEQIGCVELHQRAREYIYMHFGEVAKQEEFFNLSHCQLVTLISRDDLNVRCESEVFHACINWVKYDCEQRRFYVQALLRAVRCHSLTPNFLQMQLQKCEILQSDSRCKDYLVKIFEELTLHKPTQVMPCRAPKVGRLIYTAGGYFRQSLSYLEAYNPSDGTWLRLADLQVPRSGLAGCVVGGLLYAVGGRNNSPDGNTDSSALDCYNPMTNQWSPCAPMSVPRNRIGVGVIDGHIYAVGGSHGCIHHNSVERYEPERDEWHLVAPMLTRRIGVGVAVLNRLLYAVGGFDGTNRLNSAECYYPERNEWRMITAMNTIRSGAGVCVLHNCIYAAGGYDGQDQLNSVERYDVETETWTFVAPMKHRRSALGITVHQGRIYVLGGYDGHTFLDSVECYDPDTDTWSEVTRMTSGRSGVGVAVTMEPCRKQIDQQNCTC
T2 sequence (P05121 24-402): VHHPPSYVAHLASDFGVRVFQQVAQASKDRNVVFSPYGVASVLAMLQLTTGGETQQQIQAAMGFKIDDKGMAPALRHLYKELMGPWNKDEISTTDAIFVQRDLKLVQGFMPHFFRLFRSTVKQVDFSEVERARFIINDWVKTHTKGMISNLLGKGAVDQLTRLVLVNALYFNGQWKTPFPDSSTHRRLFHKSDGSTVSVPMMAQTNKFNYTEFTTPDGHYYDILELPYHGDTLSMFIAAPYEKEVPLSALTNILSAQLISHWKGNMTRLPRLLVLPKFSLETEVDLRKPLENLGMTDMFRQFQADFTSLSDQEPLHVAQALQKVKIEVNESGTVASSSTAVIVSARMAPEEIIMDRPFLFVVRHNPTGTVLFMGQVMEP

Row | SMILES | enrichment ratioavg [1, 5] | competition ratioavg [1, 6] | enrichment ratioavg ([2]; probe 1 3 mM 0.5 h vs probe 3) | competition ratioavg ([2]; probe 1 vs probe 1+10x probe 3) | enrichment ratioavg [3, 5] | competition ratioavg [3, 6] | enrichment ratioavg ([4]; probe 1 3 mM 0.5 h vs probe 3) | competition ratioavg ([4]; probe 1 vs probe 1+10x probe 3) | competition ratioavg ([1]; probe 2 vs probe 2+10x probe 4, cell line not given) | enrichment ratioavg ([2]; probe 2 1 mM 0.5 h vs probe 4) | competition ratioavg ([2]; probe 2 vs probe 2+10x probe 4) | enrichment ratioavg ([3]; probe 2 1 mM 0.5 h vs probe 4, MDA-MB-231) | competition ratioavg ([3]; probe 2 vs probe 2+10x probe 4, MDA-MB-231) | enrichment ratioavg ([4]; probe 2 1 mM 0.5 h vs probe 4) | competition ratioavg ([4]; probe 2 vs probe 2+10x probe 4)
1 | C#CCNN.Cl [probe 1, prop-2-yn-1-ylhydrazine hydrochloride] | 16 | 4 | 17 | 3 | 17 | 20 | 15 | 2 |  |  |  |  |  |  | 
2 | C#CCCNC(=O)c1ccc(NN)cc1.Cl [probe 2, N-(but-3-yn-1-yl)-4-hydrazinylbenzamide hydrochloride] |  |  |  |  |  |  |  |  | 3 | 20 | 3 | 12 | 3 | 8 | 3
